Patent US11780840B2 (Incyte Corporation, priority 2020, dated 2023)

Key:
[1] = target: T1, catalytic domain (JH1, amino acids 826-1132) of human JAK2 (Homo sapiens, UniProt O60674); experiment: JAK2 LanthaScreen JH1 Binding Assay; conditions: JAK2 JH1 (1.5 nM), 50 nM fluorescent JAK2-JH1 tracer, 2 hours at 25° C.; read-out: JH1 BIND
T1 construct: catalytic domain (JH1, amino acids 826-1132) of human JAK2; FLAG (N); purchased Carna Biosciences 08-445-20N; host or cells: baculovirus expression system
Procedure: Example A. JAK2 LanthaScreen JH1 Binding Assay
JAK2 JH1 binding assay utilizes catalytic domain (JH1, amino acids 826-1132) of human JAK2 expressed as N-terminal FLAG-tagged, biotinylated protein in a baculovirus expression system (Carna Biosciences, Product #08-445-20N). The assay was conducted in black 384-well polystyrene plates in a final reaction volume of 20 μL. JAK2 JH1 (1.5 nM) was incubated with compounds (100 nL serially diluted in DMSO) in the presence of 50 nM fluorescent JAK2-JH1 tracer and 0.5 nM Streptavidin-Tb cryptate (Cisbio Part #610SATLB) in assay buffer (50 mM Tris, pH=7.5, 10 mM MgCl2, 0.01% Brij-35, 0.1% BSA, 1 mM EGTA, 5% Glycerol and 5 mM DTT). Non-specific binding was accessed in the presence of 2 mM ATP. After incubation for 2 hours at 25° C., LanthaScreen signals were read on a PHERAstar FS plate reader (BMG LABTECH). Data was analyzed with IDBS XLfit and GraphPad Prism 5.0 software using a four parameter dose response curve to determine IC50 for each compound.

[2] = target: T2, pseudo-kinase domain (JH2, amino-acids 536-812 with 3 surface mutations W659A, W777A, F794H) of human V617F mutant JAK2 (Homo sapiens, UniProt O60674, F794H/V617F/W659A/W777A); experiment: JAK2 LanthaScreen JH2-V617F Binding Assay; conditions: JAK2 JH2-V617F (0.26 nM), 50 nM Fluorescent JAK2-JH2 Tracer, 1 hour at 25° C.; read-out: JH2 BIND V617F
T2 construct: pseudo-kinase domain (JH2, amino-acids 536-812 with 3 surface mutations W659A, W777A, F794H); His (C); Avi (biotinylated) (C); purchased BPS Bioscience 79498; host or cells: baculovirus expression system
Procedure: Example C. JAK2 LanthaScreen JH2-V617F Binding Assay
(§1) JAK2 JH2-V617F binding assay utilizes pseudo-kinase domain (JH2, amino-acids 536-812 with 3 surface mutations W659A, W777A, F794H) of human V617F mutant JAK2 expressed as C-terminal His-Avi-tagged, biotinylated protein in a baculovirus expression system (BPS Bioscience, Catalog #79498). The assay was conducted in black 384-well polystyrene plates in a final reaction volume of 20 μL. JAK2 JH2-V617F (0.26 nM) was incubated with compounds (100 nL serially diluted in DMSO) in the presence of 50 nM Fluorescent JAK2-JH2 Tracer (MedChem Express Catalog #HY-102055) and 0.25 nM Streptavidin-Tb cryptate (Cisbio Part #610SATLB) in assay buffer (50 mM Tris, pH=7.5, 10 mM MgCl2, 0.01% Brij-35, 0.1% BSA, 1 mM EGTA, 5% Glycerol and 5 mM DTT). Non-specific binding was accessed in the presence of 2 mM ATP. After incubation for 1 hour at 25° C., LanthaScreen signals were read on a PHERAstar FS plate reader (BMG LABTECH). Data was analyzed with IDBS XLfit and GraphPad Prism 5.0 software using a four parameter dose response curve to determine IC50 for each compound.

[3] = target: T3, pseudo-kinase domain (JH2, amino-acids 536-812 with 3 surface mutations W659A, W777A, F794H) of human Wild Type JAK2 (Homo sapiens, UniProt O60674, F794H/W659A/W777A); experiment: JAK2 LanthaScreen JH2-WT Binding Assay; conditions: JAK2 JH2-WT (0.145 nM), 50 nM Fluorescent JAK2-JH2 Tracer, 1 hour at 25° C.; read-out: JH2 BIND WT
T3 construct: pseudo-kinase domain (JH2, amino-acids 536-812 with 3 surface mutations W659A, W777A, F794H); His (C); Avi (biotinylated) (C); purchased BPS Bioscience 79463; host or cells: baculovirus expression system
Procedure: Example B. JAK2 LanthaScreen JH2-WT Binding Assay
as §1, with “JH2-WT” for “JH2-V617F”, “Wild Type” for “V617F mutant”, “#79463).” for “#79498).”, “JH2-WT (0.145” for “JH2-V617F (0.26”

T2 sequence (O60674 536-812 V617F/W659A/W777A/F794H): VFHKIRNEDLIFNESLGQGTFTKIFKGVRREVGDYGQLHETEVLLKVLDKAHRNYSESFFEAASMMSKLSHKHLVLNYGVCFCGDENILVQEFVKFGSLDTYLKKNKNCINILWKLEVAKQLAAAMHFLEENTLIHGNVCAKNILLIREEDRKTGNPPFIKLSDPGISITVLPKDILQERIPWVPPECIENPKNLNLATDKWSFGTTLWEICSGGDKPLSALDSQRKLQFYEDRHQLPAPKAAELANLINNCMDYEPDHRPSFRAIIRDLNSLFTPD
T1 sequence (O60674 826-1132): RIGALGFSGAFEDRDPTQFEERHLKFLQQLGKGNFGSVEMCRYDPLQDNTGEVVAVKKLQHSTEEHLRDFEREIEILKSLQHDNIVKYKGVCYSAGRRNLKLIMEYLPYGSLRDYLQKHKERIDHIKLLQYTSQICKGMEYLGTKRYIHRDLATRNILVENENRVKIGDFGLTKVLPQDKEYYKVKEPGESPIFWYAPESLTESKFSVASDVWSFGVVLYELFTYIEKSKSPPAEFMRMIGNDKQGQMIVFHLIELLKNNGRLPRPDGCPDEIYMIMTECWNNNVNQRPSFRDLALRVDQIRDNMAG
T3 sequence (O60674 536-812 W659A/W777A/F794H): as the sequence (O60674 536-812 V617F/W659A/W777A/F794H) above, with F82V counted along it

For Cn1c(=O)n(C2CCCC2)c2c3c(-c4ccc(C5(C#N)CC5)cc4)c(-c4cnn(CS(C)(=O)=O)c4)[nH]c3ncc21 [Example 31, 1-(4-(1-Cyclopentyl-3-methyl-7-(1-((methylsulfonyl)methyl)-1H-pyrazol-4-yl)-2-oxo-1,2,3,6-tetrahydroimidazo [4,5-d]pyrrolo[2,3-b]pyridin-8-yl)phenyl)cyclo-propane-1-carbonitrile], the IC50 [1] was 100 to 500 nM, the IC50 [2] was at most 10 nM and the IC50 [3] was at most 10 nM.
Molecule COC1CC=C(c2c(-c3ccc(CN4CCC(S(C)(=O)=O)CC4)cc3)[nH]c3ncc4c(c23)n(C2CCCC2)c(=O)n4C)CC1 (stereo not drawn) [Example 32, 1-Cyclopentyl-8-(4-methoxycyclohex-1-en-1-yl)-3-methyl-7-(4-((4-(methylsulfonyl)piperidin-1-yl)methyl)phenyl)-3,6-dihydroimidazo[4,5-d]pyrrolo[2,3-b] pyridin-2(1H)-one] has an IC50 [1] of 10 to 100 nM, an IC50 [2] of at most 10 nM and an IC50 [3] of at most 10 nM.
Work on Cn1c(=O)n(C2CCCC2)c2c3c(C4=CCOCC4)c(-c4ccc(CN5CCC(S(C)(=O)=O)CC5)cc4)[nH]c3ncc21 [Example 33, 1-Cyclopentyl-8-(3,6-dihydro-2H-pyran-4-yl)-3-methyl-7-(4-((4-(methylsulfonyl)piperidin-1-yl)methyl)phenyl)-3,6-dihydroimidazo[4,5-d]pyrrolo[2,3-b] pyridin-2(1H)-one] yielded an IC50 [1] of 10 to 100 nM, an IC50 [2] of at most 10 nM and an IC50 [3] of at most 10 nM.
Cn1c(=O)n(C)c2c3c(C4CC4)c(-c4ccc(CN5CCC(S(C)(=O)=O)CC5)cc4)[nH]c3ncc21 [Example 34] was tested, and the IC50 [1] was 500 to 1000 nM, the IC50 [2] was over 1000 nM and the IC50 [3] was 500 to 1000 nM.
In the case of COc1ccc(-c2c(-c3ccc(CN4CCC(S(C)(=O)=O)CC4)cc3)[nH]c3ncc4c(c23)n(C)c(=O)n4C)cn1 [Example 35, 8-(6-Methoxypyridin-3-yl)-1,3-dimethyl-7-(4-((4-(methylsulfonyl)piperidin-1-yl)methyl)phenyl)-3,6-dihydroimidazo[4,5-d]pyrrolo[2,3-b]pyridin-2(1H)-one], the IC50 [1] is reported as over 1000 nM, the IC50 [2] is reported as 100 to 500 nM and the IC50 [3] is reported as 100 to 500 nM.
CC(C)n1c(=O)n(C)c2cnc3[nH]c(-c4cnn(Cc5ccncc5)c4)c(-c4ccc(C#N)cc4)c3c21 [Example 36, 4-(1-Isopropyl-3-methyl-2-oxo-7-(1-(pyridin-4-ylmethyl)-1H-pyrazol-4-yl)-1,2,3,6-tetrahydroimidazo [4,5-d]pyrrolo[2,3-b]pyridin-8-yl)benzonitrile] gave an IC50 [1] of 100 to 500 nM, an IC50 [2] of at most 10 nM and an IC50 [3] of at most 10 nM.
CC(=O)N1CCN(c2ccc(-c3[nH]c4ncc5c(c4c3-c3ccc(C#N)cc3)n(C(C)C)c(=O)n5C)cc2)CC1 [Example 37, 4-(7-(4-(4-Acetylpiperazin-1-yl)phenyl)-1-isopropyl-3-methyl-2-oxo-1,2,3,6-tetrahydroimidazo [4,5-d]pyrrolo[2,3-b]pyridin-8-yl) benzonitrile] was tested, and the IC50 [1] was over 1000 nM, the IC50 [2] was at most 10 nM and the IC50 [3] was at most 10 nM.
With CC(C)n1c(=O)n(C)c2cnc3[nH]c(C4=CCOCC4)c(-c4ccc(C#N)cc4)c3c21 [Example 38, 4-(7-(3,6-Dihydro-2H-pyran-4-yl)-1-isopropyl-3-methyl-2-oxo-1,2,3,6-tetrahydroimidazo [4,5-d]pyrrolo[2,3-b]pyridin-8-yl)benzonitrile] the IC50 [1] was over 1000 nM, the IC50 [2] was 10 to 100 nM and the IC50 [3] was 10 to 100 nM.
With CC(C)n1c(=O)n(C)c2cnc3[nH]c(C4CC4)c(-c4ccc(C#N)cc4)c3c21 [Example 39] the IC50 [1] was over 1000 nM, the IC50 [2] was 10 to 100 nM and the IC50 [3] was 10 to 100 nM.
In the case of Cn1c(=O)n(C)c2c3c(-c4ccccc4)c(-c4cccnc4)[nH]c3ncc21 [Example 40, 1,3-Dimethyl-8-phenyl-7-(pyridin-3-yl)-3,6-dihydroimidazo[4,5-d]pyrrolo[2,3-b]pyridin-2(1H)-one], the IC50 [1] is reported as over 1000 nM, the IC50 [2] is reported as over 1000 nM and the IC50 [3] is reported as 500 to 1000 nM.
Cn1c(=O)n(C)c2c3c(-c4ccccc4)c(C4CCNCC4)[nH]c3ncc21 [Example 41, 1,3-Dimethyl-8-phenyl-7-(piperidin-4-yl)-3,6-dihydroimidazo[4,5-d]pyrrolo[2,3-b]pyridin-2(1H)-one] was tested, and the IC50 [1] was over 1000 nM, the IC50 [2] was over 1000 nM and the IC50 [3] was over 1000 nM.
Cn1c(=O)n(C)c2c3c(-c4ccccc4)c(CCO)[nH]c3ncc21 [Example 42, 7-(2-Hydroxyethyl)-1,3-dimethyl-8-phenyl-3,6-dihydroimidazo[4,5-d]pyrrolo[2,3-b]pyridin-2(1H)-one] was tested, and the IC50 [1] was over 1000 nM, the IC50 [2] was over 1000 nM and the IC50 [3] was over 1000 nM.
Molecule CC(C)C(=O)c1[nH]c2ncc3c(c2c1-c1ccccc1)n(C)c(=O)n3C [Example 43, 7-Isobutyryl-1,3-dimethyl-8-phenyl-3,6-dihydroimidazo [4,5-d]pyrrolo[2,3-b]pyridin-2(1H)-one] has an IC50 [1] of over 1000 nM, an IC50 [2] of over 1000 nM and an IC50 [3] of over 1000 nM.
With CC(C)n1c(=O)n(C)c2cnc3[nH]c(-c4cnn(CS(C)(=O)=O)c4)c(-c4ccccc4)c3c21 [Example 44] the IC50 [1] was 100 to 500 nM, the IC50 [2] was at most 10 nM and the IC50 [3] was at most 10 nM.
Cn1c(=O)n(C2CC3CCC2C3)c2c3c(-c4ccccc4)c(-c4cnn(CS(C)(=O)=O)c4)[nH]c3ncc21 (stereo not drawn) [Example 45, 1-(Bicyclo[2.2.1]heptan-2-yl)-3-methyl-7-(1-((methylsulfonyl)methyl)-1H-pyrazol-4-yl)-8-phenyl-3,6-dihydroimidazo[4,5-d]pyrrolo[2,3-b]pyridin-2(1H)-one] showed an IC50 [1] of 10 to 100 nM, an IC50 [2] of 10 to 100 nM and an IC50 [3] of at most 10 nM.
Molecule Cn1c(=O)n(C2CCOCC2)c2c3c(-c4ccccc4)c(-c4ccc(CN5CCC(S(C)(=O)=O)CC5)cc4)[nH]c3ncc21 [Example 46, 3-Methyl-7-(4-((4-(methylsulfonyl)piperidin-1-yl)methyl)phenyl)-8-phenyl-1-(tetrahydro-2H-pyran-4-yl)-3,6-dihydroimidazo[4,5-d]pyrrolo[2,3-b] pyridin-2(1H)-one] has an IC50 [1] of 500 to 1000 nM, an IC50 [2] of at most 10 nM and an IC50 [3] of at most 10 nM.
Cn1ncc2cc(-c3c(-c4cnn(CC(C)(C)O)c4)[nH]c4ncc5c(c34)n(C3CCCC3)c(=O)n5C)ccc21 [Example 47, 1-Cyclopentyl-7-(1-(2-hydroxy-2-methylpropyl)-1H-pyrazol-4-yl)-3-methyl-8-(1-methyl-1H-indazol-5-yl)-3,6-dihydroimidazo[4,5-d]pyrrolo[2,3-b]pyridin-2(1H)-one] gave an IC50 [1] of 100 to 500 nM, an IC50 [2] of at most 10 nM and an IC50 [3] of at most 10 nM.
